Test results taken from US10357500B2, “Neuro-protective agents and uses thereof” (Guangzhou Cellprotek Pharmaceutical Co., Ltd., priority 2014, dated 2019).
“Also recorded” adds a separate entry of the source.

Columns and labels:
Type in all cases: in vivo
[1] = test system: Macaca fascicularis in acute hypobaric hypoxia; experiment: Transmission electron microscopy of the cortical tissue of the frontal lobe (vasogenic edema); details: frontal lobe cortex, transmission electron microscope, vs solvent control
From the text: (§1) 17 healthy male Macaca fascicularis, 6 to 6.5 years-old, weighted 6.8-7.5 kg, were used. The use of laboratory animals is approved by Committee of laboratory animal management and use and experimental animal ethics committee. The experiment scheme complies with rules concerning animal protection, animal welfare and ethical principles. The 17 Macaca fascicularis were grouped randomly into 3 groups (Table 1).
(§2) The low pressure chamber group is a platform used to simulate low temperature and low pressure plateau environment. The system can be manipulated to simulate a low pressure environment having any altitude below 10000 meters and any temperature above −30° C. The ascending velocity: 3 m/second (0 to 6000 m); descending velocity: 2 m/second (6000 m to 7500 m); constant temperature: 22° C.; average air flow velocity: 150 m^3/h.
(§3) (1) An altitude of 7,500 meters was simulated by manipulation of the low-pressure chamber to cause acute hypoxia in Macaca fascicularis.
(§4) The Macaca fascicularis raised in the laboratory animal housing were labeled and transferred to the low-pressure chamber. The Macaca fascicularis was fed for 1 more day in the chamber in order to make them adapt to the experimental environment. The pressure in the low-pressure chamber was adjusted to simulate altitudes of 3,000, 4,500, and 6,000 meters, staying at each altitude for 30 minutes, followed by simulation of an altitude of […] for 24 hours. The animals were then treated with drugs individually at pre-determined doses. After treatment at 7,500 meters for 48 hours, the altitude was decreased to 6,000 meters at a velocity of 3 m/s. The animals were subject to ketamine anesthesia, sacrificed, dissected and subject to sampling. The samples were fixed. Animals grouped in plain controls were raised in an animal housing at an altitude of 350 m before assessment and sacrifice.
(§5) (2) The animals in 5α-androstane-3β,5,6β-triol treatment group were administered through intravenous injection 10 mL of 5α-androstane-3β,5,6β-triol solution in glucose saline at a dosage of 10 mg/kg before simulation, after 30 min at 3,000 meters, and after 30 min at 4,500 meters, respectively. The animals in solvent control group were given 10 mL of glucose saline through intravenous injection.
(§6) (3) The animals in 5α-androstane-3β,5,6β-triol treatment group were administered by skeletal muscle injection at 5 different points with 5α-androstane-3β,5,6β-triol sustained-release formulation at a dosage of 30 mg/kg after 30 min at 6,000 meters. Acute plateau hypoxia models were administered 10 mL of glucose saline through intravenous injection.
(4) The animals in 5α-androstane-3β,5,6β-triol treatment group were administered through intravenous injection 10 mL of 5α-androstane-3β,5,6β-triol injection in glucose saline at a dosage of 10 mg/kg after 24 hours at 7,500 meters, and further by skeletal muscle injection at 5 different points with 5α-androstane-3β,5,6β-triol sustained-release formulation at a dosage of 30 mg/kg. Acute plateau hypoxia models were administered 10 mL of glucose saline through intravenous injection.
The cortical tissues of the frontal lobes of the animals were taken out and cut to provide brain pieces of 1 mm^3, which were fixed in a stationary liquid of 2.5% glutaraldehyde to prepare ultrathin sections. The morphology of neurons and the structure of blood vessels were observed by transmission electron microscopy.

[2] = test system: Macaca fascicularis in acute hypobaric hypoxia; experiment: HE staining of the cortical tissue of the frontal lobe (neuronal vacuolar degeneration); details: frontal lobe cortex, vs solvent control
From the text: as §1, §2, §3
The Macaca fascicularis raised in the laboratory animal housing were labeled and transferred to the low-pressure chamber. The Macaca fascicularis was fed for 1 more day in the chamber in order to make them adapt to the experimental environment. […] The animals were then treated with drugs individually at pre-determined doses. […]

[3] = test system: Macaca fascicularis in acute hypobaric hypoxia; experiment: Neurological score, acute hypobaric hypoxia model (simulated 7,500 m); details: for neurological function / neurological score (in words): acute hypobaric hypoxia, simulated 7,500 meters, vs solvent control
From the text: as §1, §2, §3, §4, §5
(3) The animals in 5α-androstane-3β,5,6β-triol treatment group were administered by skeletal muscle injection at 5 different points with 5α-androstane-3β,5,6β-triol sustained-release formulation at a dosage of 30 mg/kg after 30 min at 6,000 meters. Acute plateau hypoxia models were administered 10 mL of glucose saline through intravenous injection. […]
Animals were stayed at simulated altitude of 7,500 meters for 24 hours before descending to 6,000 meters at a speed of 3 m/s. The neurological scores were evaluated and recorded according to a reported method (Zhu et al, An improved method of neurological score for non-human primates, Chinese Journal of Comparative Medicine, 2011, 21 (9): 58-62). The neurological score was evaluated and recorded by two trained observers who were neither aware of the grouping nor involved in the drug administering. […]
The results were indicated as mean±standard deviation, and statistically analyzed by software SigmaPlot. […]

[4] = test system: Macaca fascicularis in acute hypobaric hypoxia; experiment: Cerebral water content of left hemisphere, acute hypobaric hypoxia model; details: for increase of cerebral water content (in words): acute hypobaric hypoxia, simulated 7,500 meters, vs solvent control; for Cerebral Water Content (%): left hemisphere, 48 hours at simulated 7,500 meters, 10 mg/kg i.v. and 30 mg/kg i.m., repeated after 24 hours
From the text: as §1, §2, §3, §4, §5, §6
(4) The animals in 5α-androstane-3β,5,6β-triol treatment group were administered through intravenous injection 10 mL of 5α-androstane-3β,5,6β-triol injection in glucose saline at a dosage of 10 mg/kg after 24 hours at 7,500 meters, and further by skeletal muscle injection at 5 different points with 5α-androstane-3β,5,6β-triol sustained-release formulation at a dosage of 30 mg/kg. […]
Cerebral water content was measured according to a reported method (Patir H, Sarada S K, Singh S, Mathew T, Singh B, Bansal A. Quercetin as a prophylactic measure against high altitude cerebral edema. Free Radic Biol Med 2012 Aug. 15; 53(4):659-68). […] Brains of the animals were rapidly taken out and the wet weights of the left hemispheres were measured. The left hemispheres were then placed in a drying oven at 60° C., and were measured their weights daily at a fixed time until no weight change was observed. […]

## CC(C)CCC[C@@H](C)[C@H]1CC[C@H]2[C@@H]3C[C@@H](O)[C@@]4(O)C[C@@H](O)CC[C@]4(C)[C@H]3CC[C@]12C [Compound I, cholestane-3β,5α,6β-triol]
[1]
  vasogenic edema / Virchow-Robin space of cortical capillary vessels (in words): effectively reduce
[2]
  neuronal vacuolar degeneration (in words): effectively reduce

## CCC=C1CC[C@H]2[C@@H]3C[C@@H](O)[C@@]4(O)C[C@@H](O)CC[C@]4(C)[C@H]3CC[C@]12C [Compound II, 17-propylidene-androstane-3β,5α,6β-triol]
[3]
  neurological function / neurological score (in words): effectively protected
[4]
  increase of cerebral water content (in words): inhibited increase of the cerebral water content
[1]
  vasogenic edema / Virchow-Robin space of cortical capillary vessels (in words): no significant angioedema

## CC(C)C1CC[C@H]2[C@@H]3C[C@@H](O)[C@@]4(O)C[C@@H](O)CC[C@]4(C)[C@H]3CC[C@]12C (stereo partly drawn) [Compound III, 17-isopropyl-androstane-3β,5α,6β-triol]
[3]
  neurological function / neurological score (in words): effectively protected
[4]
  increase of cerebral water content (in words): inhibited increase of the cerebral water content
[1]
  vasogenic edema / Virchow-Robin space of cortical capillary vessels (in words): no significant angioedema

## CCCCC1CC[C@H]2[C@@H]3C[C@@H](O)[C@@]4(O)C[C@@H](O)CC[C@]4(C)[C@H]3CC[C@]12C (stereo partly drawn) [Compound IV, 17-butyl-androstane-3β,5α,6β-triol]
[3]
  neurological function / neurological score (in words): effectively protected
[4]
  increase of cerebral water content (in words): inhibited increase of the cerebral water content
[1]
  vasogenic edema / Virchow-Robin space of cortical capillary vessels (in words): no significant angioedema

## C[C@@]12CCC[C@H]1[C@@H]1C[C@@H](O)[C@@]3(O)C[C@@H](O)CC[C@]3(C)[C@H]1CC2 [5α-androstane-3β,5,6β-triol]
[3]; 24 hours at simulated 7,500 meters, 10 mg/kg i.v. x3 and 30 mg/kg i.m. sustained-release, solvent control 31.6±4.2, mean±SD
  neurological score: 20.5±5.7
[3]
  neurological function / neurological score (in words): significantly improved
[4]; plain control 76.155, solvent control 76.714
  Cerebral Water Content (%): 76.283 ± 0.235 %
[4]; plain control 76.155, solvent control 76.714, listed as 5α-androstane-3β3,5,6β-triol
  Cerebral Water Content (%): 76.283%
[1]
  vasogenic edema / Virchow-Robin space of cortical capillary vessels (in words): reduced; also recorded: no significant vasogenic edema occurred
[2]
  neuronal vacuolar degeneration (in words): reduced neuronal vacuolar degeneration
